Data reported in patent publication US4075340A, “Thieno [2,3-C] pyridine derivatives and therapeutic composition containing same” (Parcor, priority 1975, dated 1978).
Counter-ions that a name gives are not always drawn. Like-named read-outs stand apart in the source and are kept apart here.

Columns and labels:
[1] = system: blood platelet aggregation; experiment: Inhibiting activity on blood platelet aggregation (adenosine diphosphate induced, turbidimetric assay); type: in vivo; settings: rat plasma, animals administered 100 mg/kg, read-out: percent inhibition on blood platelet aggregation
Method: Rat plasma, prepared to contain 600,000+20,000 blood platelets per mm3 is normally cloudy. Addition of adenosine diphosphate induces blood platelet aggregation and, thus an increase of the light transmission. When the same test is effected with a plasma prepared from the blood of an animal which has been administered 100 mg/kg of a derivative having an inhibiting effect on blood platelet aggregation, there is no aggregation of the blood platelets and the serum remains cloudy. The turbidimetric assay effected with a spectrophotometer provides a measure of the inhibiting activities of the test derivatives on blood platelet aggregation.

[2] = acute toxicity, LD50 /24 hrs/kg body weight, intravenous route, method according to Miller and Tainter; settings: in vivo
[3] = system: carrageenin-induced edema in rats; experiment: Localized Carrageenin-induced Edema Method; type: in vivo; settings: Rattus norvegicus, oral 100 mg/kg, repeated (1 hour before, with, 1 and 2.5 hours after carrageenin)
Method: a) Localized Carrageenin-induced Edema Method
0.1 ml of a 1% carrageenin solution is injected at time 0 in the metatarsal flexor muscles of the right hind limb of rats. The animals of the treated group are administered orally, additionally, 100 mg/kg of the test derivative, respectively one hour prior to and then simultaneously with the phlogogenic agent, and then one hour and 2.5 hours thereafter. The determinations effected with a ROCH micrometer at times 0, 1 hour, 2 hrs, 3 hrs and 5hrs after carrageenin administration, make it possible to determine the percent anti-inflammatory activity, as a function of time.

[4] = system: ovalbumin-induced systemic edema in rats; experiment: Ovalbumin-induced Systemic Edema Method; type: in vivo; settings: Rattus norvegicus, oral 100 mg/kg, 1 hour before and with ovalbumin
Method: b) Ovalbumin-induced Systemic Edema Method
Rats are administered a simultaneous intraperitoneal injection of 1 ml ovalbumin and 0.5 ml of a 1% aqueous Evans Blue solution. The animals of the treated group are additionally administered orally 100 mg/kg of the test derivative, one hour prior to ovalbumin administration and then simultaneously with said ovalbumin administration. The intensity of the phenomenon thus induced is rated according to a scale from 1 to 5, according to the progress of the inflammatory syndrome. The measurements are effected after 2 hours and after 3 hours. Thus are determined the mean intensity of the edema and the percent decrease of the edema reaction.

[5] = after 1 hour, read-out: Percent anti-inflammatory activity after 1 hour
[6] = after 2 hours, read-out: Percent anti-inflammatory activity after 2 hours
[7] = after 5 hours, read-out: Percent anti-inflammatory activity after 5 hours
[8] = after 2 hours, read-out: Percent decrease (of the edema reaction) after 2 hours
[9] = after 3 hours, read-out: Percent decrease (of the edema reaction) after 3 hours

`Cc1ccc(CN2CCc3ccsc3C2)cc1` [Derivative No. 24, 6-p.methylbenzyl-4,5,6,7-tetrahydro-thieno[2,3-c]pyridine, hydrochloride] showed an inhibition at 100 mg/kg [1] of 78% and an LD50 at 24 h [2] of 45 mg/kg.
`COc1ccc(CN2CCc3ccsc3C2)c(OC)c1OC` [compound 28] showed an inhibition in vivo at 100 mg/kg [3, 5] of 43%, an inhibition in vivo at 100 mg/kg [3, 6] of 52% and an inhibition in vivo at 100 mg/kg [3, 7] of 61%. The inhibition in vivo at 100 mg/kg [4, 8] was 45% and the inhibition in vivo at 100 mg/kg [4, 9] was 63%.
In the case of `Cl.OC(CN1CCc2ccsc2C1)c1ccccc1` (stereo not shown) [Derivative No. 23, 6-(2-hydroxy-2-phenyl-ethyl)-4,5,6,7-tetrahydro-thieno[2,3-c]pyridine, hydrochloride], the LD50 at 24 h [2] was 67 mg/kg.
`COc1cccc(C(CN2CCc3ccsc3C2)OC(C)=O)c1` (stereo not shown) [compound 10] gave an inhibition in vivo at 100 mg/kg [3, 5] of 43%, an inhibition in vivo at 100 mg/kg [3, 6] of 50% and an inhibition in vivo at 100 mg/kg [3, 7] of 56%. The inhibition in vivo at 100 mg/kg [4, 8] was 48% and the inhibition in vivo at 100 mg/kg [4, 9] was 55%.
`COc1ccc(CN2CCc3ccsc3C2)cc1OC.Cl` [Derivative No. 25, 6-(3,4-dimethoxy-benzyl)-4,5,6,7-tetrahydro-thieno[2,3-c]pyridine, hydrochloride] gave an LD50 at 24 h [2] of 90 mg/kg.
In the case of `Clc1ccc(CN2CCc3ccsc3C2)s1` [Derivative No. 6, 6-[2-(5-chloro-thienyl)-methyl]-4,5,6,7-tetrahydro-thieno[2,3-c]pyridine], the LD50 at 24 h [2] was 135 mg/kg.
`COc1ccc(OC)c(C(O)CN2CCc3ccsc3C2C)c1` (stereo not shown) [Derivative No. 34, 6-[2-(2,5-dimethoxy-phenyl)-2-hydroxy-ethyl]-7-methyl-4,5,6,7-tetrahydro-thieno[2,3-c]pyridine] showed an LD50 at 24 h [2] of 84 mg/kg.
Work on `CC1c2sccc2CCN1CCc1ccccc1` (stereo not drawn) [Derivative No. 31, 7-methyl-6-β-phenethyl-4,5,6,7-tetrahydro-thieno[2,3-c]pyridine, maleate] yielded an LD50 at 24 h [2] of 53 mg/kg.
`OC(CN1CCc2ccsc2C1)C(Cl)(Cl)Cl` (stereo not shown) [Derivative No. 37, 6-(2-hydroxy-3,3,3-trichloro-propyl)-4,5,6,7-tetrahydro-thieno[2,3-c]pyridine] showed an LD50 at 24 h [2] of 18 mg/kg.
Work on `OC(CN1CCc2ccsc2C1)c1ccc(Cl)cc1` (stereo not shown) [Derivative No. 27, 6-(2-hydroxy-2-p.chlorophenyl-ethyl)-4,5,6,7-tetrahydro-thieno[2,3-c]pyridine] yielded an inhibition at 100 mg/kg [1] of 86% and an LD50 at 24 h [2] of 45 mg/kg.
In the case of `Clc1ccc(CN2CCc3ccsc3C2)cc1` [Derivative No. 21, 6-p.chlorobenzyl-4,5,6,7-tetrahydro-thieno[2,3-c]pyridine, hydrochloride], the inhibition at 100 mg/kg [1] was 91% and the LD50 at 24 h [2] was 55 mg/kg.
Molecule `Cc1c2sccc2cc[n+]1CC(=O)c1ccccc1.[Br-]` [Derivative No. 39, 7-methyl-6-phenacyl-thieno[2,3-c]pyridinium bromide] has an LD50 at 24 h [2] of 35 mg/kg.
`COc1cccc(CN2CCc3ccsc3C2)c1` [Derivative No. 20, 6-m.methoxybenzyl-4,5,6,7-tetrahydro-thieno-[2,3-c]pyridine, hydrochloride] gave an LD50 at 24 h [2] of 63 mg/kg.
`COc1ccc(CN2CCc3ccsc3C2)cc1OC` [Derivative No. 38, 6-(3,4-dimethoxy-benzyl)-4,5,6,7-tetrahydro-thieno[2,3-c]pyridine] showed an LD50 at 24 h [2] of 22 mg/kg.
`COc1ccc(OCC(O)CN2CCc3ccsc3C2)cc1` (stereo not shown) [Derivative No. 35, 6-(2-hydroxy-3-p.methoxyphenoxy-propyl)-4,5,6,7-tetrahydro-thieno[2,3-c]pyridine, hydrochloride] gave an LD50 at 24 h [2] of 19 mg/kg.
`OC(CN1CCc2ccsc2C1)c1ccc(F)cc1` (stereo not shown) [Derivative No. 29, 6-(2-hydroxy-2-p.fluorophenyl-ethyl)-4,5,6,7-tetrahydro-thieno[2,3-c]pyridine] gave an inhibition at 100 mg/kg [1] of 89% and an LD50 at 24 h [2] of 60 mg/kg.
`COc1cc(CN2CCc3ccsc3C2C)cc(OC)c1OC` (stereo not shown) [Derivative No. 3, 7-methyl-6-(3,4,5-trimethoxy-benzyl)-4,5,6,7-tetrahydro-thieno[2,3-c]pyridine] gave an inhibition at 100 mg/kg [1] of 91%.
Work on `Cl.O=[N+]([O-])c1ccccc1CN1CCc2ccsc2C1` [Derivative No. 11, 6-o-nitrobenzyl-4,5,6,7-tetrahydro-thieno[2,3-c]pyridine, hydrochloride] yielded an LD50 at 24 h [2] of 160 mg/kg.
Work on `O=[N+]([O-])c1ccc(CN2CCc3ccsc3C2)cc1` [Derivative No. 12, 6-p-nitrobenzyl-4,5,6,7-tetrahydro-thieno[2,3-c]pyridine] yielded an inhibition at 100 mg/kg [1] of 75%.
For `COc1ccc(C(O)CN2CCc3ccsc3C2)cc1` (stereo not shown) [compound 30], the inhibition in vivo at 100 mg/kg [3, 5] was 38%, the inhibition in vivo at 100 mg/kg [3, 6] was 44% and the inhibition in vivo at 100 mg/kg [3, 7] was 51%. For the same molecule, the inhibition in vivo at 100 mg/kg [4, 8] was 39% and the inhibition in vivo at 100 mg/kg [4, 9] was 59%.
`CC(O)CN1CCc2ccsc2C1.Cl` (stereo not shown) [Derivative No. 9, 6-(2-hydroxy-propyl)-4,5,6,7-tetrahydro-thieno[2,3-c]pyridine, hydrochloride] showed an inhibition at 100 mg/kg [1] of 89% and an LD50 at 24 h [2] of 120 mg/kg.
`O=C(O)c1ccccc1CN1CCc2ccsc2C1` [Derivative No. 5, 6-o-carboxybenzyl-4,5,6,7-tetrahydro-thieno[2,3-c]pyridine] gave an inhibition in vivo at 100 mg/kg [3, 5] of 44%, an inhibition in vivo at 100 mg/kg [3, 6] of 52% and an inhibition in vivo at 100 mg/kg [3, 7] of 60%. The inhibition in vivo at 100 mg/kg [4, 8] was 42% and the inhibition in vivo at 100 mg/kg [4, 9] was 61%.
With `CC1c2sccc2CCN1CC(O)c1ccccc1` (stereo not shown) [Derivative No. 7, 6-(2-hydroxy-2-phenyl-ethyl)-7-methyl-4,5,6,7-tetrahydro-thieno[2,3-c]pyridine] the inhibition at 100 mg/kg [1] was 85%.
With `CCCCCCCCCCCCN1CCc2ccsc2C1` [Derivative No. 1, 6-n-dodecyl-4,5,6,7-tetrahydro-thieno[2,3-c]pyridine] the inhibition in vivo at 100 mg/kg [3, 5] was 38%, the inhibition in vivo at 100 mg/kg [3, 6] was 46% and the inhibition in vivo at 100 mg/kg [3, 7] was 54%. It also gave an inhibition in vivo at 100 mg/kg [4, 8] of 36% and an inhibition in vivo at 100 mg/kg [4, 9] of 51%.
For `COc1cccc(C(CN2CCc3ccsc3C2)OC(C)=O)c1` (stereo not shown) [Derivative No. 10, 6-(2-acetoxy-2m.methoxyphenyl-ethyl)-4,5,6,7-tetrahydro-thieno[2,3-c]pyridine], the LD50 at 24 h [2] was 80 mg/kg.
`COc1cc(CN2CCc3ccsc3C2)cc(OC)c1OC.O=C(O)/C=C\C(=O)O` [Derivative No. 17, 6-(3,4,5-trimethoxy-benzyl)-4,5,6,7-tetrahydro-thieno[2,3-c]pyridine, maleate] gave an LD50 at 24 h [2] of 80 mg/kg.
Work on `OC(CN1CCc2ccsc2C1)c1ccccc1` (stereo not shown) [compound 23] yielded an inhibition in vivo at 100 mg/kg [3, 5] of 39%, an inhibition in vivo at 100 mg/kg [3, 6] of 51% and an inhibition in vivo at 100 mg/kg [3, 7] of 58%. The inhibition in vivo at 100 mg/kg [4, 8] was 50% and the inhibition in vivo at 100 mg/kg [4, 9] was 61%.
For `COc1ccc(OC)c(C(O)CN2CCc3ccsc3C2C)c1` (stereo not shown) [compound 34], the inhibition in vivo at 100 mg/kg [3, 5] was 37%, the inhibition in vivo at 100 mg/kg [3, 6] was 48% and the inhibition in vivo at 100 mg/kg [3, 7] was 58%. The inhibition in vivo at 100 mg/kg [4, 8] was 45% and the inhibition in vivo at 100 mg/kg [4, 9] was 61%.
For `COc1ccc(CN2CCc3ccsc3C2)cc1` [Derivative No. 18, 6-p.methoxybenzyl-4,5,6,7-tetrahydro-thieno[2,3-c]pyridine, hydrochloride], the inhibition at 100 mg/kg [1] was 78% and the LD50 at 24 h [2] was 60 mg/kg.
For `CC(=O)CCN1CCc2ccsc2C1.O=C(O)/C=C\C(=O)O` [Derivative No. 36, 6-(3-oxo-butyl)-4,5,6,7-tetrahydro-thieno[2,3-c]-pyridine, maleate], the LD50 at 24 h [2] was 16 mg/kg.
In the case of `c1ccc(CCN2CCc3ccsc3C2)cc1` [Derivative No. 19, 6-β-phenethyl-4,5,6,7-tetrahydro-thieno[2,3-c]pyridine, hydrochloride], the LD50 at 24 h [2] was 48 mg/kg.
In the case of `COc1cccc(C(O)CN2CCc3ccsc3C2C)c1` (stereo not shown) [Derivative No. 33, 6-(2-hydroxy-2-m.methoxyphenyl-ethyl)-7-methyl-4,5,6,7,-tetrahydro-thieno[2,3-c]pyridine], the inhibition at 100 mg/kg [1] was 74%.
With `COc1ccc(C(=O)C[n+]2ccc3ccsc3c2C)cc1.[Br-]` [Derivative No. 44, 7-methyl-6-p-methoxyphenacyl-thieno[2,3-c]pyridinium bromide] the LD50 at 24 h [2] was 51 mg/kg.
With `Fc1ccccc1CN1CCc2ccsc2C1` [Derivative No. 26, 6-o.fluorobenzyl-4,5,6,7-tetrahydro-thieno[2,3-c]pyridine, fumarate] the LD50 at 24 h [2] was 87 mg/kg.
Molecule `CC(=O)OC(CN1CCc2ccsc2C1)c1ccc(Cl)cc1` (stereo not shown) [Derivative No. 8, 6-(2-acetoxy-2-p-chlorophenyl-ethyl)-4,5,6,7-tetrahydro-thieno[2,3-c]pyridine] has an inhibition in vivo at 100 mg/kg [3, 5] of 40%, an inhibition in vivo at 100 mg/kg [3, 6] of 49% and an inhibition in vivo at 100 mg/kg [3, 7] of 59%. It also gave an inhibition in vivo at 100 mg/kg [4, 8] of 45% and an inhibition in vivo at 100 mg/kg [4, 9] of 58%.
